One test concerns the target T1, human AR (Homo sapiens, UniProt P10275).
T1 construct: expressed in transfected cells; host or cells: CV-1 cells (African green monkey kidney fibroblasts)
T1 sequence (P10275 1-920): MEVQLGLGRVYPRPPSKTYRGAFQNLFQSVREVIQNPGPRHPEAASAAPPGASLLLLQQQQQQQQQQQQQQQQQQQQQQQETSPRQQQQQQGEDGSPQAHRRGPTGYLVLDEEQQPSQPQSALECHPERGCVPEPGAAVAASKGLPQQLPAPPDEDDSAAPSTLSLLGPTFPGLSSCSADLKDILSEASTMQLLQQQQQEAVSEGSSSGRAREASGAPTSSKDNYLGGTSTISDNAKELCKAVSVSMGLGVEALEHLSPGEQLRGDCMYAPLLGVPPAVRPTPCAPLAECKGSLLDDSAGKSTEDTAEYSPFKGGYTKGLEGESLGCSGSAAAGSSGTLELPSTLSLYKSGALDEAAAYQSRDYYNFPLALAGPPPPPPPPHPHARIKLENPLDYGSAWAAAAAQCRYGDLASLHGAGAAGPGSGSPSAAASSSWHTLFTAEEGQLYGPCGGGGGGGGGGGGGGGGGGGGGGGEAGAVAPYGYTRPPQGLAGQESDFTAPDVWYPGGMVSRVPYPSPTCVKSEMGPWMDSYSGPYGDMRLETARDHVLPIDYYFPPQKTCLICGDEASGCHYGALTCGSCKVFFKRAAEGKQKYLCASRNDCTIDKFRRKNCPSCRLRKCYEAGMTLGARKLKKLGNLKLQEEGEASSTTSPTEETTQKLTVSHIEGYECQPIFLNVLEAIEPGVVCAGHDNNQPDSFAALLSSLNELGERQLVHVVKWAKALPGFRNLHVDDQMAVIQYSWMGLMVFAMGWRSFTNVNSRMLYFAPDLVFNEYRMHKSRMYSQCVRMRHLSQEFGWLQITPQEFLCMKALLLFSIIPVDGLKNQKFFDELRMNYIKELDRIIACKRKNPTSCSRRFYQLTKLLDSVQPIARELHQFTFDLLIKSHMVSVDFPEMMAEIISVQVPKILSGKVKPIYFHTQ
As to the kind of experiment: co-transfection assay, hAR in CV-1 cells (MTV-LUC reporter). The format is cell-based. Particulars: for AR Agonist CV-1 Cells Efficacy: agonist mode, luciferase production relative to DHT; for AR Agonist CV-1 Cells Efficacy / AR Antagonist CV-1 Cells Efficacy: hAR in CV-1 cells; for AR Antagonist CV-1 Cells Efficacy: antagonist mode, maximal inhibition of DHT-induced luciferase production. The text has this: The co-transfection assay provides a method for identifying functional agonists and partial agonists that mimic, or antagonists that inhibit, the effect of native hormones and quantifying their activity for responsive IR proteins. In this regard, the co-transfection assay mimics an in vivo system in the laboratory. Importantly, activity in the co-transfection assay correlates very well with known in vivo activity, such that the co-transfection assay functions as a qualitative and quantitative predictor of a tested compounds in vivo pharmacology. , See e.g., T. Berger et al. 41 J. Steroid Biochem. Molec.
(§1) CV-1 cells (African green monkey kidney fibroblasts) were cultured in the presence of Dulbecco's Modified Eagle Medium (DMEM) supplemented with 10% charcoal resin-stripped fetal bovine serum (CH-FBS) then transferred to 96-well microtiter plates one day prior to transfection.
The reporter plasmid, MTV-LUC, contains the cDNA for firefly luciferase (LUC) under control of the mouse mammary tumor virus (MTV) long terminal repeat, a conditional promoter containing an androgen response element. See e.g., Berger et al. supra. In addition, pRS-β-Gal, coding for constitutive expression of E. coli β-galactosidase (β-Gal), was included as an internal control for evaluation of transfection efficiency and compound toxicity.
(§2) Three to four replicates were used for each sample.
(§3) After 40 hours, the cells were washed with PBS, lysed with a Triton X-100-based buffer and assayed for LUC and β-Gal activities using a luminometer or spectrophotometer, respectively. For each replicate, the normalized response (NR) was calculated as: LUC response/β-Gal rate • where β-Gal rate=β-Gal/β-Gal incubation time.

Another test addresses T2, ER (Homo sapiens, UniProt P03372).
T2 construct: expressed in transfected cells; host or cells: background cell substantially devoid of endogenous IRs (CV-1 described for the co-transfection assay)
T2 sequence (P03372 1-595): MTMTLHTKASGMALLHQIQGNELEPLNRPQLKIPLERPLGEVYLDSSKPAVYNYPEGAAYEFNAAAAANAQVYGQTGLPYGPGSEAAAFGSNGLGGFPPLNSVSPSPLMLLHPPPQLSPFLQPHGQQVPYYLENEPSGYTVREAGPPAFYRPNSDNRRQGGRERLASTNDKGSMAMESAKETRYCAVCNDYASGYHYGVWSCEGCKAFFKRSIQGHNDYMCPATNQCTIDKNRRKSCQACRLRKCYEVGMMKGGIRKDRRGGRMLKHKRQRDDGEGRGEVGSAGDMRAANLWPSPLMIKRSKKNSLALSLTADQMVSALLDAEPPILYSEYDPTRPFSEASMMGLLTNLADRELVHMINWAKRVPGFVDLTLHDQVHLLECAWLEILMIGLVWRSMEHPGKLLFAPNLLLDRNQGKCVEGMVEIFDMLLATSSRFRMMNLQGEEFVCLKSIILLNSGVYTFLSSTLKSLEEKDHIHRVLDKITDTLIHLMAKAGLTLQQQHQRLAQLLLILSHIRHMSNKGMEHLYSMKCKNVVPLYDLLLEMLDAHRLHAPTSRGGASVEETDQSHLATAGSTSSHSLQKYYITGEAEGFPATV
As to the kind of experiment: co-transfection assay, ER. The class given is cell-based. Here is the method: as §1, §2, §3

This note sets out measurements from patent US7214690B2, “Tricyclic quinolinone and tricyclic quinoline androgen receptor modulator compounds and methods” (Ligand Pharmaceuticals Incorporated, priority 2001, dated 2007).

Each structure is given as a SMILES string. Where two headings read alike, the source gives them in different places. Where only a bound is given, the exact number is not on record here.

Turning to `C=CCN1c2ccc3[nH]c(=O)cc(C(F)(F)F)c3c2OC[C@H]1C(C)C` [Compound 126, (3R)-4-Allyl-2,3,4,7-tetrahydro-3-isopropyl-10-(trifluoromethyl)-8H-[1,4]oxazino[2,3-f]quinolin-8-one], the EC50 at human AR is 35 nM.

`C[C@@H]1COc2c(ccc3[nH]c(=O)cc(C(F)(F)F)c23)N1CC(F)(F)F` [Compound 104, (3R)-2,3,4,7-Tetrahydro-3-methyl-4-(2,2,2-trifluoroethyl)-10-(trifluoromethyl)-8H-[1,4]oxazino[2,3-f]quinolin-8-one]: at human AR, the EC50 came out at 7 nM; the “AR Agonist CV-1 Cells Efficacy” value is on record as 73%; the “AR Antagonist CV-1 Cells Efficacy” value was “na (not active (i.e. efficacy of <20 and potency of >10,000 nM for the cotransfection assay)”.

As for `CC[C@@H]1COc2c(ccc3[nH]c(=O)cc(C(F)(F)F)c23)N1` [Compound 107, (3R)-3-Ethyl-2,3,4,7-tetrahydro-10-(trifluoromethyl)-8H-[1,4]oxazino[2,3-f]quinolin-8-one], at human AR, the EC50 was determined as 301 nM, the “AR Agonist CV-1 Cells Efficacy” value was 17% and the “AR Antagonist CV-1 Cells Efficacy” value was 56%.

Take `CC(C)(O)C(=O)Nc1ccc([N+](=O)[O-])c(C(F)(F)F)c1` [Flut, 2-hydroxyflutamide, reference compound]: the EC50 on ER (agonist mode, read-out: ER Potency Agon) is above 10 µM. Further, at ER (antagonist mode, read-out: ER Potency Antag), the IC50 is above 10 µM.

In the case of `CC(=O)S[C@@H]1CC2=CC(=O)CC[C@]2(C)[C@H]2CC[C@@]3(C)[C@@H](CC[C@@]34CCC(=O)O4)[C@H]12` [Spir, spironolactone, reference compound], at ER, the EC50 is above 10 µM and the IC50 is above 10 µM.

On to `CC[C@@H]1COc2c(ccc3[nH]c(=O)cc(C(F)(F)F)c23)N1CC` [Compound 109, (3R)-3,4-Diethyl-2,3,4,7-tetrahydro-10-(trifluoromethyl)-8H-[1,4]oxazino[2,3-f]quinolin-8-one], for which, on human AR, the EC50 is 411 nM; the “AR Agonist CV-1 Cells Efficacy” value was determined as 29%; the “AR Antagonist CV-1 Cells Efficacy” value was “na (not active (i.e. efficacy of <20 and potency of >10,000 nM for the cotransfection assay)”.

For `CCN1c2ccc3[nH]c(=O)cc(C(F)(F)F)c3c2OC[C@H]1C(C)C` [Compound 122, (3R)-4-Ethyl-2,3,4,7-tetrahydro-3-isopropyl-10-(trifluoromethyl)-8H-[1,4]oxazino[2,3-f]quinolin-8-one], at human AR, the EC50 came out at 270 nM; the “AR Agonist CV-1 Cells Efficacy” value worked out at 76%; the “AR Antagonist CV-1 Cells Efficacy” value was “na (not active (i.e. efficacy of <20 and potency of >10,000 nM for the cotransfection assay)”.

Take `CCCC1COc2c(ccc3[nH]c(=O)cc(C(F)(F)F)c23)N1C` (racemic) [Compound 117, (±)-2,3,4,7-Tetrahydro-4-methyl-3-propyl-10-(trifluoromethyl)-8H-[1,4]oxazino[2,3-f]quinolin-8-one]: on human AR, the EC50 was above 10000 nM; the “AR Agonist CV-1 Cells Efficacy” value is “na (not active (i.e. efficacy of <20 and potency of >10,000 nM for the cotransfection assay)”; the “AR Antagonist CV-1 Cells Efficacy” value was found to be 74%.

In the case of `C[C@@H]1COc2c(ccc3[nH]c(=O)cc(C(F)(F)F)c23)N1C` [Compound 102, (3R)-2,3,4,7-Tetrahydro-3,4-dimethyl-10-(trifluoromethyl)-8H-[1,4]oxazino[2,3-f]quinolin-8-one], at human AR, the EC50 was above 10000 nM; the “AR Agonist CV-1 Cells Efficacy” value was “na (not active (i.e. efficacy of <20 and potency of >10,000 nM for the cotransfection assay)”; the “AR Antagonist CV-1 Cells Efficacy” value is on record as 32%.

Take `C[C@@H]1Oc2c(ccc3[nH]c(=O)cc(C(F)(F)F)c23)N(CC(F)(F)F)[C@@H]1C` (racemic) [Compound 136, (±)-(2S,3R)-2,3,4,7-Tetrahydro-2,3-dimethyl-4-(2,2,2-trifluoroethyl)-10-(trifluoromethyl)-8H-[1,4]oxazino[2,3-f]quinolin-8-one]: on human AR, the EC50 is 34 nM, the “AR Agonist CV-1 Cells Efficacy” value was 61% and the “AR Antagonist CV-1 Cells Efficacy” value came out at 24%.

Turning to `CCCC1COc2c(ccc3[nH]c(=O)cc(C(F)(F)F)c23)N1` (racemic) [Compound 116, (±)-2,3,4,7-Tetrahydro-3-propyl-10-(trifluoromethyl)-8H-[1,4]oxazino[2,3-f]quinolin-8-one], on human AR, the EC50 was above 10000 nM; the “AR Agonist CV-1 Cells Efficacy” value is “na (not active (i.e. efficacy of <20 and potency of >10,000 nM for the cotransfection assay)”; the “AR Antagonist CV-1 Cells Efficacy” value is on record as 79%.

Take `CN1CC(C)(C)Oc2c1ccc1[nH]c(=O)cc(C(F)(F)F)c21` [Compound 138, 2,3,4,7-Tetrahydro-2,2,4-trimethyl-10-(trifluoromethyl)-8H-[1,4]oxazino[2,3-f]quinolin-8-one]: on human AR, the EC50 is above 10000 nM; the “AR Agonist CV-1 Cells Efficacy” value was “na (not active (i.e. efficacy of <20 and potency of >10,000 nM for the cotransfection assay)”; the “AR Antagonist CV-1 Cells Efficacy” value is recorded as 90%.
